{"source": "patent US6339042B1", "about": "“Herbicidal N-cyclohexadienyl heteroaryloxyacetamides” (American Cyanamid Co., priority 1999, dated 2002)", "conditions_in_all_cases": "three weeks after treatment", "key": {"[1]": {"system": "Oryza sativum", "test": "Pre-emergence herbicidal evaluation, ORYSA", "type": "in vivo", "text": "(§1) The treated pots are then placed on greenhouse benches, watered and cared for in accordance with conventional greenhouse procedures."}, "[2]": {"system": "Alopecurus myosuroides", "test": "Pre-emergence herbicidal evaluation, ALOMY", "type": "in vivo", "text": "as §1"}, "[3]": {"system": "Apera spica venti", "test": "Pre-emergence herbicidal evaluation, APESV", "type": "in vivo", "text": "as §1"}, "[4]": {"system": "Zea mays", "test": "Post-emergence herbicidal evaluation, ZEAMX"}, "[5]": {"system": "Apera spica venti", "test": "Post-emergence herbicidal evaluation, APESV"}, "[6]": {"system": "Oryza sativum", "test": "Post-emergence herbicidal evaluation, ORYSA"}, "[7]": {"system": "Setaria viridis", "test": "Pre-emergence herbicidal evaluation, SETVI", "type": "in vivo", "text": "as §1"}, "[8]": {"system": "Glycine max", "test": "Pre-emergence herbicidal evaluation, GLXMA", "type": "in vivo", "text": "as §1"}, "[9]": {"system": "Zea mays", "test": "Pre-emergence herbicidal evaluation, ZEAMX", "type": "in vivo", "text": "as §1"}, "[10]": {"system": "Hordeum vulgare", "test": "Post-emergence herbicidal evaluation, HORVW"}, "[11]": {"system": "Alopecurus myosuroides", "test": "Post-emergence herbicidal evaluation, ALOMY"}, "[12]": {"system": "Setaria viridis", "test": "Post-emergence herbicidal evaluation, SETVI"}, "[13]": {"system": "Echinochloa crus-galli", "test": "Post-emergence herbicidal evaluation, ECHCG", "description": "(§2) The compounds of the invention are tested for pre- and post-emergence herbicidal activity.\n(§3) Each pot is examined three weeks after treatment and phytotoxicity is assessed according to the rating system set forth below.\n(§4) These acetone solutions are diluted with water and the resulting formulations applied at dosage levels equivalent of about 0.4 to 0.1 kg per hectare of test compound per pot. After spraying the plants are placed on greenhouse benches and are cared for in the usual manner, commensurate with conventional greenhouse practices."}, "[14]": {"system": "Echinochloa crus-galli", "test": "Pre-emergence herbicidal evaluation, ECHCG", "type": "in vivo", "text": "as §1"}, "[15]": {"system": "Hordeum vulgare", "test": "Pre-emergence herbicidal evaluation, HORVW", "type": "in vivo", "text": "as §1"}, "[16]": {"system": "Triticum aestivum", "test": "Pre-emergence herbicidal evaluation, TRZAW", "type": "in vivo", "text": "as §1"}, "[17]": {"system": "Amaranthus tuberculatus", "test": "Pre-emergence herbicidal evaluation, AMATA", "type": "in vivo", "text": "as §1"}, "[18]": {"system": "Lolium perenne", "test": "Pre-emergence herbicidal evaluation, LOLPE", "type": "in vivo", "text": "as §1"}, "[19]": {"system": "Galium aparine", "test": "Post-emergence herbicidal evaluation, GALAP", "description": "as §2, §3, §4"}, "[20]": {"system": "Lolium perenne", "test": "Post-emergence herbicidal evaluation, LOLPE"}, "[21]": {"system": "Triticum aestivum", "test": "Post-emergence herbicidal evaluation, TRZAW", "description": "as §3, §4"}, "[22]": {"system": "Amaranthus tuberculatus", "test": "Post-emergence herbicidal evaluation, AMATA", "type": "in vivo"}, "[23]": {"system": "Glycine max", "test": "Post-emergence herbicidal evaluation, GLXMA"}}, "data": [{"smiles": "CC1=CC(N(C)C(=O)COc2nc3ccccc3o2)=CC(C)(C)C1", "note": "[Example 16]", "values": [{"measurement": "phytotoxicity rating ORYSA", "setting": "[1]; 0.100 kg/ha", "result": "0 (0 - No effect)"}, {"measurement": "phytotoxicity rating ORYSA", "setting": "[1]; 0.200 kg/ha", "result": "0 (0 - No effect)"}, {"measurement": "phytotoxicity rating ORYSA", "setting": "[1]; 0.400 kg/ha", "result": "2 (2 - Slight effect)"}, {"measurement": "phytotoxicity rating ORYSA", "setting": "[1]; 0.800 kg/ha", "result": "5 (5 - Definite injury)"}, {"measurement": "phytotoxicity rating ALOMY", "setting": "[2]; 0.100 kg/ha", "result": "6 (6 - Herbicidal effect)"}, {"measurement": "phytotoxicity rating ALOMY", "setting": "[2]; 0.200 kg/ha", "result": "8 (8 - Approaching complete kill)"}, {"measurement": "phytotoxicity rating ALOMY", "setting": "[2]; 0.400 kg/ha", "result": "8 (8 - Approaching complete kill)"}, {"measurement": "phytotoxicity rating ALOMY", "setting": "[2]; 0.800 kg/ha", "result": "9 (9 - Complete kill)"}, {"measurement": "phytotoxicity rating APESV", "setting": "[3]; 0.200 kg/ha", "result": "4 (4 - Injury)"}, {"measurement": "phytotoxicity rating APESV", "setting": "[3]; 0.400 kg/ha", "result": "8 (8 - Approaching complete kill)"}, {"measurement": "phytotoxicity rating APESV", "setting": "[3]; 0.800 kg/ha", "result": "9 (9 - Complete kill)"}, {"measurement": "phytotoxicity rating ZEAMX", "setting": "[4]; 0.100 kg/ha", "result": "0 (0 - No effect)"}, {"measurement": "phytotoxicity rating ZEAMX", "setting": "[4]; 0.200 kg/ha", "result": "0 (0 - No effect)"}, {"measurement": "phytotoxicity rating ZEAMX", "setting": "[4]; 0.400 kg/ha", "result": "0 (0 - No effect)"}, {"measurement": "phytotoxicity rating APESV", "setting": "[5]; 0.100 kg/ha", "result": "0 (0 - No effect)"}, {"measurement": "phytotoxicity rating APESV", "setting": "[5]; 0.200 kg/ha", "result": "6 (6 - Herbicidal effect)"}, {"measurement": "phytotoxicity rating APESV", "setting": "[5]; 0.400 kg/ha", "result": "4 (4 - Injury)"}, {"measurement": "phytotoxicity rating ORYSA", "setting": "[6]; 0.100 kg/ha", "result": "0 (0 - No effect)"}, {"measurement": "phytotoxicity rating ORYSA", "setting": "[6]; 0.200 kg/ha", "result": "0 (0 - No effect)"}, {"measurement": "phytotoxicity rating ORYSA", "setting": "[6]; 0.400 kg/ha", "result": "2 (2 - Slight effect)"}, {"measurement": "phytotoxicity rating SETVI", "setting": "[7]; 0.100 kg/ha", "result": "5 (5 - Definite injury)"}, {"measurement": "phytotoxicity rating SETVI", "setting": "[7]; 0.200 kg/ha", "result": "8 (8 - Approaching complete kill)"}, {"measurement": "phytotoxicity rating SETVI", "setting": "[7]; 0.400 kg/ha", "result": "9 (9 - Complete kill)"}, {"measurement": "phytotoxicity rating SETVI", "setting": "[7]; 0.800 kg/ha", "result": "9 (9 - Complete kill)"}, {"measurement": "phytotoxicity rating GLXMA", "setting": "[8]; 0.100 kg/ha", "result": "0 (0 - No effect)"}, {"measurement": "phytotoxicity rating GLXMA", "setting": "[8]; 0.200 kg/ha", "result": "0 (0 - No effect)"}, {"measurement": "phytotoxicity rating GLXMA", "setting": "[8]; 0.400 kg/ha", "result": "0 (0 - No effect)"}, {"measurement": "phytotoxicity rating GLXMA", "setting": "[8]; 0.800 kg/ha", "result": "0 (0 - No effect)"}, {"measurement": "phytotoxicity rating ZEAMX", "setting": "[9]; 0.100 kg/ha", "result": "0 (0 - No effect)"}, {"measurement": "phytotoxicity rating ZEAMX", "setting": "[9]; 0.200 kg/ha", "result": "0 (0 - No effect)"}, {"measurement": "phytotoxicity rating ZEAMX", "setting": "[9]; 0.400 kg/ha", "result": "0 (0 - No effect)"}, {"measurement": "phytotoxicity rating ZEAMX", "setting": "[9]; 0.800 kg/ha", "result": "0 (0 - No effect)"}, {"measurement": "phytotoxicity rating HORVW", "setting": "[10]; 0.100 kg/ha", "result": "0 (0 - No effect)"}, {"measurement": "phytotoxicity rating HORVW", "setting": "[10]; 0.200 kg/ha", "result": "0 (0 - No effect)"}, {"measurement": "phytotoxicity rating HORVW", "setting": "[10]; 0.400 kg/ha", "result": "2 (2 - Slight effect)"}, {"measurement": "phytotoxicity rating ALOMY", "setting": "[11]; 0.100 kg/ha", "result": "2 (2 - Slight effect)"}, {"measurement": "phytotoxicity rating ALOMY", "setting": "[11]; 0.200 kg/ha", "result": "5 (5 - Definite injury)"}, {"measurement": "phytotoxicity rating ALOMY", "setting": "[11]; 0.400 kg/ha", "result": "7 (7 - Good herbicidal effect)"}, {"measurement": "phytotoxicity rating SETVI", "setting": "[12]; 0.100 kg/ha", "result": "0 (0 - No effect)"}, {"measurement": "phytotoxicity rating SETVI", "setting": "[12]; 0.200 kg/ha", "result": "0 (0 - No effect)"}, {"measurement": "phytotoxicity rating SETVI", "setting": "[12]; 0.400 kg/ha", "result": "0 (0 - No effect)"}, {"measurement": "phytotoxicity rating ECHCG", "setting": "[13]; 0.100 kg/ha", "result": "0 (0 - No effect)"}, {"measurement": "phytotoxicity rating ECHCG", "setting": "[13]; 0.200 kg/ha", "result": "0 (0 - No effect)"}, {"measurement": "phytotoxicity rating ECHCG", "setting": "[13]; 0.400 kg/ha", "result": "0 (0 - No effect)"}, {"measurement": "phytotoxicity rating ECHCG", "setting": "[14]; 0.100 kg/ha", "result": "5 (5 - Definite injury)"}, {"measurement": "phytotoxicity rating ECHCG", "setting": "[14]; 0.200 kg/ha", "result": "6 (6 - Herbicidal effect)"}, {"measurement": "phytotoxicity rating ECHCG", "setting": "[14]; 0.400 kg/ha", "result": "7 (7 - Good herbicidal effect)"}, {"measurement": "phytotoxicity rating ECHCG", "setting": "[14]; 0.800 kg/ha", "result": "9 (9 - Complete kill)"}, {"measurement": "phytotoxicity rating HORVW", "setting": "[15]; 0.100 kg/ha", "result": "0 (0 - No effect)"}, {"measurement": "phytotoxicity rating HORVW", "setting": "[15]; 0.200 kg/ha", "result": "0 (0 - No effect)"}, {"measurement": "phytotoxicity rating HORVW", "setting": "[15]; 0.400 kg/ha", "result": "2 (2 - Slight effect)"}, {"measurement": "phytotoxicity rating HORVW", "setting": "[15]; 0.800 kg/ha", "result": "3 (3 - Moderate effect)"}, {"measurement": "phytotoxicity rating TRZAW", "setting": "[16]; 0.100 kg/ha", "result": "0 (0 - No effect)"}, {"measurement": "phytotoxicity rating TRZAW", "setting": "[16]; 0.200 kg/ha", "result": "0 (0 - No effect)"}, {"measurement": "phytotoxicity rating TRZAW", "setting": "[16]; 0.400 kg/ha", "result": "0 (0 - No effect)"}, {"measurement": "phytotoxicity rating TRZAW", "setting": "[16]; 0.800 kg/ha", "result": "1 (1 - Trace effect)"}, {"measurement": "phytotoxicity rating AMATA", "setting": "[17]; 0.100 kg/ha", "result": "0 (0 - No effect)"}, {"measurement": "phytotoxicity rating AMATA", "setting": "[17]; 0.200 kg/ha", "result": "3 (3 - Moderate effect)"}, {"measurement": "phytotoxicity rating AMATA", "setting": "[17]; 0.400 kg/ha", "result": "3 (3 - Moderate effect)"}, {"measurement": "phytotoxicity rating AMATA", "setting": "[17]; 0.800 kg/ha", "result": "7 (7 - Good herbicidal effect)"}, {"measurement": "phytotoxicity rating LOLPE", "setting": "[18]; 0.100 kg/ha", "result": "0 (0 - No effect)"}, {"measurement": "phytotoxicity rating LOLPE", "setting": "[18]; 0.200 kg/ha", "result": "0 (0 - No effect)"}, {"measurement": "phytotoxicity rating LOLPE", "setting": "[18]; 0.400 kg/ha", "result": "3 (3 - Moderate effect)"}, {"measurement": "phytotoxicity rating LOLPE", "setting": "[18]; 0.800 kg/ha", "result": "8 (8 - Approaching complete kill)"}, {"measurement": "phytotoxicity rating GALAP", "setting": "[19]; 0.100 kg/ha", "result": "3 (3 - Moderate effect)"}, {"measurement": "phytotoxicity rating GALAP", "setting": "[19]; 0.200 kg/ha", "result": "3 (3 - Moderate effect)"}, {"measurement": "phytotoxicity rating GALAP", "setting": "[19]; 0.400 kg/ha", "result": "4 (4 - Injury)"}, {"measurement": "phytotoxicity rating LOLPE", "setting": "[20]; 0.100 kg/ha", "result": "4 (4 - Injury)"}, {"measurement": "phytotoxicity rating LOLPE", "setting": "[20]; 0.200 kg/ha", "result": "6 (6 - Herbicidal effect)"}, {"measurement": "phytotoxicity rating LOLPE", "setting": "[20]; 0.400 kg/ha", "result": "7 (7 - Good herbicidal effect)"}, {"measurement": "phytotoxicity rating TRZAW", "setting": "[21]; 0.100 kg/ha", "result": "0 (0 - No effect)"}, {"measurement": "phytotoxicity rating TRZAW", "setting": "[21]; 0.200 kg/ha", "result": "0 (0 - No effect)"}, {"measurement": "phytotoxicity rating TRZAW", "setting": "[21]; 0.400 kg/ha", "result": "0 (0 - No effect)"}, {"measurement": "phytotoxicity rating AMATA", "setting": "[22]; 0.100 kg/ha", "result": "3 (3 - Moderate effect)"}, {"measurement": "phytotoxicity rating AMATA", "setting": "[22]; 0.400 kg/ha", "result": "3 (3 - Moderate effect)"}, {"measurement": "phytotoxicity rating GLXMA", "setting": "[23]; 0.100 kg/ha", "result": "2 (2 - Slight effect)"}, {"measurement": "phytotoxicity rating GLXMA", "setting": "[23]; 0.200 kg/ha", "result": "3 (3 - Moderate effect)"}, {"measurement": "phytotoxicity rating GLXMA", "setting": "[23]; 0.400 kg/ha", "result": "4 (4 - Injury)"}]}]}
